Patent US20200024278A1, “COMPOSITION COMPRISING ANTIBIOTIC COMPOUND AND AN HETEROCYCLIC COMPOUND AND THEIR USE IN PREVENTING OR TREATING BACTERIAL INFECTIONS” (MUTABILIS, priority 2016, published 2020)

What was measured:
Assay in all cases: MIC, broth microdilution (CLSI), substance alone or ATB combined with compound at 4 or 8 μg/mL
[1] = system: ECO 190317; type: cell-based, E. coli; conditions: Escherichia coli; substance alone; ECO 190317; read-out: MIC
In short: (§1)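 Potentiation format: antibiotic dilution series run with test compound held at 4 or 8 μg/mL, alongside compound-alone MICs. Broth microdilution per CLSI in ca-MHB, 16-20 h at 35° C.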

[2] = system: ECO UFR39; type: cell-based, E. coli; conditions: Escherichia coli; substance alone; ECO UFR39; read-out: MIC
In short: as §1

[3] = system: KPN BAA-1898; type: cell-based, K. pneumoniae; conditions: Klebsiella pneumoniae, BAA1898; substance alone; KPN BAA-1898; read-out: MIC
In short: as §1

[4] = system: KPN UFR42; type: cell-based, K. pneumoniae; conditions: Klebsiella pneumoniae; substance alone; KPN UFR42; read-out: MIC
In short: as §1

[5] = system: ECL P99; type: cell-based, E. cloacae; conditions: Enterobacter cloacae; substance alone; ECL P99; read-out: MIC
In short: as §1

[6] = system: PAE 105250; type: cell-based, P. aeruginosa; conditions: PAE 105250; for MIC ATB combined with compound: compound @4 μg/ml
In short: as §1

[7] = system: PAE UFR48; type: cell-based, P. aeruginosa; conditions: PAE UFR48; for MIC ATB combined with compound: compound @4 μg/ml
In short: as §1

[8] = system: PAE UFR90; type: cell-based, P. aeruginosa; conditions: PAE UFR90; for MIC ATB combined with compound: compound @4 μg/ml
In short: as §1

[9] = system: SAU 29213; type: cell-based, S. aureus; conditions: for MIC ATB combined with compound: compound @4 μg/ml, SAU 29213
In short: as §1

[10] = system: SPN 49619; type: cell-based, S. pneumoniae; conditions: SPN 49619; for MIC ATB combined with compound: compound @4 μg/ml
In short: as §1

[11] = system: ABA 107292; type: cell-based, A. baumannii; conditions: Acinetobacter baumannii, substance alone, read-out: MIC
Procedure: (§2) Compounds of the present invention were assessed against genotyped bacterial strains alone or in combination with an antibacterial. In the assays, MICs of said compounds or combination of antibiotics with fixed concentrations of said compounds (4 or 8 μg/mL) were determined by the broth microdilution method according to the Clinical Laboratory Standards Institute (CLSI-M7-A7). Briefly, compounds alone according to the invention were prepared in DMSO and spotted (2 μL each) on sterile polystyrene plates (Corning, 3788). Combinations of compounds and antibiotics dilutions were prepared in DMSO and spotted (1 μL each) on sterile polystyrene plates (Corning, 3788). Log phase bacterial suspensions were adjusted to a final density of 5·10^5 CFU/mL in cation-adjusted Mueller-Hinton broth (ca-MHB; Becton-Dickinson and Company) and added to each well (98 μL). Assays including Fosfomycin were supplemented with 25 μg/ml of Glucose-6-phosphate. Microplates were incubated for 16-20 h at 35° C. in ambient air. The MIC of the compounds was defined as the lowest concentration of said compounds that prevented bacterial growth as read by visual inspection. The MIC of ATB at each compound concentration was defined as the lowest concentration of ATB that prevented bacterial growth as read by visual inspection.

[12] = system: ABA 19606; type: cell-based, A. baumannii; conditions: Acinetobacter baumannii, substance alone, read-out: MIC
Procedure: as §2

[13] = Pseudomonas aeruginosa, substance alone, read-out: MIC

Structure (SMILES): NCCON=C1C[C@@H](C(N)=O)N2C[C@@H]1N(OS(=O)(=O)[O-])C2=O.[Na+] [Example 2, sodium and 2,2,2-trifluoroacetate [(2S,5S)-4-(2-ammonium-ethoxyimino)-2-carbamoyl-7-oxo-1,6-diazabicyclo[3.2.1]octan-6-yl] sulfate]
- MIC [1]: 4 µg/mL
- MIC [2]: 4 µg/mL
- MIC [3]: > 32 µg/mL
- MIC [4]: > 32 µg/mL
- MIC [5]: 16 µg/mL
- MIC ATB combined with compound ([6]; ATB ATM): 8 µg/mL
- MIC ATB combined with compound ([6]; ATB FEP): 4 µg/mL
- MIC ATB combined with compound ([6]; ATB FOS): >128 µg/mL
- MIC ATB combined with compound ([6]; ATB MEM): 2 µg/mL
- MIC ATB combined with compound ([6]; ATB PIP): >32 µg/mL
- MIC [6, 13]: > 32 µg/mL
- MIC ATB combined with compound ([7]; ATB ATM): 8 µg/mL
- MIC ATB combined with compound ([7]; ATB FEP): 32 µg/mL
- MIC ATB combined with compound ([7]; ATB FOS): 16 µg/mL
- MIC ATB combined with compound ([7]; ATB MEM): 4 µg/mL
- MIC ATB combined with compound ([7]; ATB PIP): 128 µg/mL
- MIC [7, 13]: 64 µg/mL
- MIC ATB combined with compound ([8]; ATB ATM): 16 µg/mL
- MIC ATB combined with compound ([8]; ATB FEP): 8 µg/mL
- MIC ATB combined with compound ([8]; ATB FOS): 4 µg/mL
- MIC ATB combined with compound ([8]; ATB MEM): 1 µg/mL
- MIC ATB combined with compound ([8]; ATB PIP): >32 µg/mL
- MIC [8, 13]: > 128 µg/mL
- MIC ATB combined with compound ([9]; ATB ATM): >32 µg/mL
- MIC ATB combined with compound ([9]; ATB FEP): 4 µg/mL
- MIC ATB combined with compound ([9]; ATB FOS): 0.5 µg/mL
- MIC ATB combined with compound ([9]; ATB MEM): 0.125 µg/mL
- MIC ATB combined with compound ([9]; ATB PIP): 1 µg/mL
- MIC ([9]; Staphylococcus aureus, substance alone, SAU 29213 (MSSA 29213), read-out: MIC): > 32 µg/mL
- MIC ATB combined with compound ([10]; ATB ATM): >32 µg/mL
- MIC ATB combined with compound ([10]; ATB FEP): 0.063 µg/mL
- MIC ATB combined with compound ([10]; ATB FOS): 16 µg/mL
- MIC ATB combined with compound ([10]; ATB MEM): 0.063 µg/mL
- MIC ATB combined with compound ([10]; ATB PIP): 0.5 µg/mL
- MIC ([10]; Streptococcus pneumoniae, substance alone, read-out: MIC): > 32 µg/mL
- MIC [11]: > 32 µg/mL
- MIC [12]: 16 µg/mL
